# From US9695155B2, “Herbicidal substituted pyrimidinyloxy benzene compounds” (E. I. DU PONT DE NEMOURS AND COMPANY, priority 2013, dated 2017)
# Tests used:
# Heteranthera limosa = test: Test B flooded paddy test; type: in vivo; conditions: Flood, 250 g ai/ha; 0 to 100 scale where 0 is no effect and 100 is complete control
# In short: (§1)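 Visual ratings on a 0 to 100 scale, where 100 means complete control, compared treated plants with controls after 13 to 15 days in a greenhouse. Treatment went into paddy water 3 cm deep over the soil, applied to plants at the 2-leaf stage.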
# giant foxtail [1] = test: Test A preemergence; type: in vivo, Setaria faberii; conditions: for Plant response rating, Foxtail, Giant: 0 to 100 scale where 0 is no effect and 100 is complete control; for Foxtail, Giant plant response rating: 0 to 100 scale, 0 no effect, 100 complete control, approx. 10 days
# In short: (§2)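 Greenhouse pot test, loam/sand soil. Formulation: non-phytotoxic solvent mix plus surfactant. Pre: directed spray onto soil after sowing. Post: plants at 1–2 leaf, 2–10 cm. Rated visually vs untreated controls at ~10 d, 0 (no effect) to 100 (complete control).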
# galium = test: Test A postemergence; type: in vivo, Galium aparine
# Source text: (§3) Seeds of plant species selected from barnyardgrass (Echinochloa crus-galli), kochia (Kochia scoparia), ragweed (common ragweed, Ambrosia elatior), Italian ryegrass (Lolium multiflorum), large (Lg) crabgrass (Digitaria sanguinalis), giant foxtail (Setaria faberii), morningglory (Ipomoea spp.), pigweed (Amaranthus retroflexus), velvetleaf (Abutilon theophrasti), wheat (Triticum aestivum), and corn (Zea mays) were planted into a blend of loam soil and sand and treated preemergence with a directed soil spray using test chemicals formulated in a non-phytotoxic solvent mixture which included a surfactant.
# (§4) At the same time, plants selected from these crop and weed species and also blackgrass (Alopecurus myosuroides), and galium (catchweed bedstraw, Galium aparine) were planted in pots containing the same blend of loam soil and sand and treated with postemergence applications of test chemicals formulated in the same manner. Plants ranged in height from 2 to 10 cm and were in the one- to two-leaf stage for the postemergence treatment. Treated plants and untreated controls were maintained in a greenhouse for approximately 10 days, after which time all treated plants were compared to untreated controls and visually evaluated for injury. Plant response ratings, summarized in Table A, are based on a 0 to 100 scale where 0 is no effect and 100 is complete control. A dash (-) response means no test result.
# barnyardgrass [2] = test: Test B flooded paddy test; type: in vivo, Echinochloa crus-galli; conditions: Flood, 250 g ai/ha; 0 to 100 scale where 0 is no effect and 100 is complete control
# In short: as §1
# sedge, umbrella = test: Test B flooded paddy test; type: in vivo, Cyperus difformis; conditions: Flood, 250 g ai/ha; 0 to 100 scale where 0 is no effect and 100 is complete control
# In short: as §1
# Italian ryegrass [3] = test: Test A preemergence; type: in vivo, Lolium multiflorum; conditions: for Plant response rating, Ryegrass, Italian: 0 to 100 scale where 0 is no effect and 100 is complete control; for Ryegrass, Italian plant response rating: 0 to 100 scale, 0 no effect, 100 complete control, approx. 10 days
# Source text: as §3, §4
# barnyardgrass [4] = test: Test A postemergence; type: in vivo, Echinochloa crus-galli
# In short: as §2
# Italian ryegrass [5] = test: Test A postemergence; type: in vivo, Lolium multiflorum
# In short: as §2
# ragweed [6] = test: Test A postemergence; type: in vivo, Ambrosia elatior
# Source text: as §3, §4
# kochia [7] = test: Test A preemergence; type: in vivo, Kochia scoparia; conditions: for Plant response rating, Kochia: 0 to 100 scale where 0 is no effect and 100 is complete control; for Kochia plant response rating: 0 to 100 scale, 0 no effect, 100 complete control, approx. 10 days
# Source text: as §3, §4
# wheat = test: Test A postemergence; type: in vivo, Triticum aestivum
# In short: as §2
# rice = test: Test B flooded paddy test; type: in vivo, Oryza sativa; conditions: Flood, 250 g ai/ha; 0 to 100 scale where 0 is no effect and 100 is complete control
# In short: as §1
# pigweed [8] = test: Test A postemergence; type: in vivo, Amaranthus retroflexus
# In short: as §2
# pigweed [9] = test: Test A preemergence; type: in vivo, Amaranthus retroflexus; conditions: for Plant response rating, Pigweed: 0 to 100 scale where 0 is no effect and 100 is complete control; for Pigweed plant response rating: 0 to 100 scale, 0 no effect, 100 complete control, approx. 10 days
# In short: as §2
# blackgrass = test: Test A postemergence; type: in vivo, Alopecurus myosuroides
# Source text: as §3, §4
# barnyardgrass [10] = test: Test A preemergence; type: in vivo, Echinochloa crus-galli; conditions: for Plant response rating, Barnyardgrass: 0 to 100 scale where 0 is no effect and 100 is complete control; for Barnyardgrass plant response rating: 0 to 100 scale, 0 no effect, 100 complete control, approx. 10 days
# In short: as §2
# corn = test: Test A postemergence; type: in vivo, Zea mays
# In short: as §2
# giant foxtail [11] = test: Test A postemergence; type: in vivo, Setaria faberii
# In short: as §2
# ragweed [12] = test: Test A preemergence; type: in vivo, Ambrosia elatior; conditions: for Plant response rating, Ragweed: 0 to 100 scale where 0 is no effect and 100 is complete control; for Ragweed plant response rating: 0 to 100 scale, 0 no effect, 100 complete control, approx. 10 days
# Source text: as §3, §4
# kochia [13] = test: Test A postemergence; type: in vivo, Kochia scoparia
# Source text: as §3, §4
# [14] = 125 g ai/ha, 0 to 100 scale where 0 is no effect and 100 is complete control
# [15] = 500 g ai/ha, 0 to 100 scale where 0 is no effect and 100 is complete control
# [16] = 31 g ai/ha, visual, approximately 10 days
# [17] = 31 g ai/ha, 0 to 100 scale, 0 no effect, 100 complete control
# [18] = 125 g ai/ha, 0 to 100 scale, 0 no effect, 100 complete control
# [19] = 1000 g ai/ha, 0 to 100 scale, 0 no effect, 100 complete control
smiles,measurement,setting,value
N#Cc1cccc(Oc2ncc(I)cn2)c1-n1cc(I)cn1 [Compound 87],"Plant response rating, Ducksalad",Heteranthera limosa,0
same,"Plant response rating, Foxtail, Giant",giant foxtail [1]; 125 g ai/ha,60
same,"Foxtail, Giant plant response rating",giant foxtail [1]; 500 g ai/ha,70
same,"Plant response rating, Galium",galium; [14],60
same,"Plant response rating, Galium",galium; [15],90
same,"Plant response rating, Barnyardgrass",barnyardgrass [2],0
same,"Plant response rating, Sedge, Umbrella","sedge, umbrella",0
same,"Plant response rating, Ryegrass, Italian",Italian ryegrass [3]; 125 g ai/ha,0
same,"Ryegrass, Italian plant response rating",Italian ryegrass [3]; 500 g ai/ha,0
same,"Plant response rating, Barnyardgrass",barnyardgrass [4]; [14],20
same,"Plant response rating, Barnyardgrass",barnyardgrass [4]; [15],20
same,"Plant response rating, Ryegrass, Italian",Italian ryegrass [5]; [14],30
same,"Plant response rating, Ryegrass, Italian",Italian ryegrass [5]; [15],40
same,"Plant response rating, Ragweed",ragweed [6]; [14],50
same,"Plant response rating, Ragweed",ragweed [6]; [15],70
same,"Plant response rating, Kochia",kochia [7]; 125 g ai/ha,30
same,Kochia plant response rating,kochia [7]; 500 g ai/ha,60
same,"Plant response rating, Wheat",wheat; [14],0
same,"Plant response rating, Wheat",wheat; [15],0
same,"Plant response rating, Rice",rice,0
same,"Plant response rating, Pigweed",pigweed [8]; [14],60
same,"Plant response rating, Pigweed",pigweed [8]; [15],100
same,"Plant response rating, Pigweed",pigweed [9]; 125 g ai/ha,90
same,Pigweed plant response rating,pigweed [9]; 500 g ai/ha,100
same,"Plant response rating, Blackgrass",blackgrass; [14],40
same,"Plant response rating, Blackgrass",blackgrass; [15],50
same,"Plant response rating, Barnyardgrass",barnyardgrass [10]; 125 g ai/ha,0
same,Barnyardgrass plant response rating,barnyardgrass [10]; 500 g ai/ha,10
same,"Plant response rating, Corn",corn; [14],20
same,"Plant response rating, Corn",corn; [15],20
same,"Plant response rating, Foxtail, Giant",giant foxtail [11]; [14],20
same,"Plant response rating, Foxtail, Giant",giant foxtail [11]; [15],60
same,"Plant response rating, Ragweed",ragweed [12]; 125 g ai/ha,10
same,Ragweed plant response rating,ragweed [12]; 500 g ai/ha,20
same,"Plant response rating, Kochia",kochia [13]; [14],50
same,"Plant response rating, Kochia",kochia [13]; [15],90
FCc1cccc(Oc2ncc(Br)cn2)c1-n1cc(Cl)cn1 [Compound 251],"Plant response rating, Ducksalad",Heteranthera limosa,75
same,"Plant response rating, Foxtail, Giant",giant foxtail [1]; [16],50
same,"Foxtail, Giant plant response rating (0 to 100 scale)",giant foxtail [1]; 125 g ai/ha,80
same,"Plant response rating, Galium",galium; [17],20
same,"Plant response rating, Galium",galium; [18],30
same,"Plant response rating, Barnyardgrass",barnyardgrass [2],0
same,"Plant response rating, Sedge, Umbrella","sedge, umbrella",40
same,"Plant response rating, Ryegrass, Italian",Italian ryegrass [3]; [16],0
same,"Ryegrass, Italian plant response rating (0 to 100 scale)",Italian ryegrass [3]; 125 g ai/ha,0
same,"Plant response rating, Barnyardgrass",barnyardgrass [4]; [17],10
same,"Plant response rating, Barnyardgrass",barnyardgrass [4]; [18],30
same,"Plant response rating, Ryegrass, Italian",Italian ryegrass [5]; [17],0
same,"Plant response rating, Ryegrass, Italian",Italian ryegrass [5]; [18],10
same,"Plant response rating, Ragweed",ragweed [6]; [17],10
same,"Plant response rating, Ragweed",ragweed [6]; [18],20
same,"Plant response rating, Kochia",kochia [7]; [16],10
same,Kochia plant response rating (0 to 100 scale),kochia [7]; 125 g ai/ha,70
same,"Plant response rating, Wheat",wheat; [17],0
same,"Plant response rating, Wheat",wheat; [18],0
same,"Plant response rating, Rice",rice,0
same,"Plant response rating, Pigweed",pigweed [8]; [17],60
same,"Plant response rating, Pigweed",pigweed [8]; [18],70
same,"Plant response rating, Pigweed",pigweed [9]; [16],70
same,Pigweed plant response rating (0 to 100 scale),pigweed [9]; 125 g ai/ha,90
same,"Plant response rating, Blackgrass",blackgrass; [17],50
same,"Plant response rating, Blackgrass",blackgrass; [18],70
same,"Plant response rating, Barnyardgrass",barnyardgrass [10]; [16],30
same,"Barnyardgrass plant response rating (0 to 100 scale, 0 is no effect, 100 is complete control)",barnyardgrass [10]; 125 g ai/ha,50
same,"Plant response rating, Corn",corn; [17],0
same,"Plant response rating, Corn",corn; [18],20
same,"Plant response rating, Foxtail, Giant",giant foxtail [11]; [17],30
same,"Plant response rating, Foxtail, Giant",giant foxtail [11]; [18],60
same,"Plant response rating, Ragweed",ragweed [12]; [16],0
same,Ragweed plant response rating (0 to 100 scale),ragweed [12]; 125 g ai/ha,30
same,"Plant response rating, Kochia",kochia [13]; [17],40
same,"Plant response rating, Kochia",kochia [13]; [18],60
Cc1noc(-c2cccc(Oc3ncc(Cl)cn3)c2-n2cc(C(F)(F)F)cn2)n1 [Compound 299],"Plant response rating, Ducksalad",Heteranthera limosa,20
same,"Foxtail, Giant plant response rating",giant foxtail [1]; 1000 g ai/ha,100
same,"Plant response rating, Galium",galium; [19],80
same,"Plant response rating, Barnyardgrass",barnyardgrass [2],20
same,"Plant response rating, Sedge, Umbrella","sedge, umbrella",70
same,"Ryegrass, Italian plant response rating",Italian ryegrass [3]; 1000 g ai/ha,60
same,"Plant response rating, Barnyardgrass",barnyardgrass [4]; [19],80
same,"Plant response rating, Ryegrass, Italian",Italian ryegrass [5]; [19],70
same,"Plant response rating, Ragweed",ragweed [6]; [19],30
same,Kochia plant response rating,kochia [7]; 1000 g ai/ha,100
same,"Plant response rating, Wheat",wheat; [19],20
same,"Plant response rating, Rice",rice,15
same,"Plant response rating, Pigweed",pigweed [8]; [19],100
same,Pigweed plant response rating,pigweed [9]; 1000 g ai/ha,100
same,"Plant response rating, Blackgrass",blackgrass; [19],80
same,Barnyardgrass plant response rating,barnyardgrass [10]; 1000 g ai/ha,90
same,"Plant response rating, Corn",corn; [19],70
same,"Plant response rating, Foxtail, Giant",giant foxtail [11]; [19],90
same,Ragweed plant response rating,ragweed [12]; 1000 g ai/ha,70
same,"Plant response rating, Kochia",kochia [13]; [19],70
CCNC(=O)c1cccc(Oc2ncc(Cl)cn2)c1-n1cc(C(F)(F)F)cn1 [Compound 257],"Foxtail, Giant plant response rating",giant foxtail [1]; 1000 g ai/ha,70
same,"Plant response rating, Galium",galium; [19],30
same,"Ryegrass, Italian plant response rating",Italian ryegrass [3]; 1000 g ai/ha,20
same,"Plant response rating, Barnyardgrass",barnyardgrass [4]; [19],10
same,"Plant response rating, Ryegrass, Italian",Italian ryegrass [5]; [19],0
same,"Plant response rating, Ragweed",ragweed [6]; [19],30
same,Kochia plant response rating,kochia [7]; 1000 g ai/ha,70
same,"Plant response rating, Wheat",wheat; [19],0
same,"Plant response rating, Pigweed",pigweed [8]; [19],40
same,Pigweed plant response rating,pigweed [9]; 1000 g ai/ha,80
same,"Plant response rating, Blackgrass",blackgrass; [19],10
same,Barnyardgrass plant response rating,barnyardgrass [10]; 1000 g ai/ha,50
same,"Plant response rating, Corn",corn; [19],0
same,"Plant response rating, Foxtail, Giant",giant foxtail [11]; [19],10
same,Ragweed plant response rating,ragweed [12]; 1000 g ai/ha,70
same,"Plant response rating, Kochia",kochia [13]; [19],60
